Biological target: T1, mTOR (Rattus norvegicus, UniProt P42346)
T1 construct: expressed in transfected cells; host or cells: 293T
Test: Immune complex assay of mTOR activity, compound added to extracts or immune complexes
Format: biochemical
Details: for PHAS-I kinase activity of AU1-mTOR: extracts incubated with increasing concentrations
Protocol: 293T cells were transfected with expression vectors for AU1-epitope tagged mTOR, HA-tagged raptor, and HA-tagged mLST8. After 24 h, the overexpressed mTOR was immunoprecipitated with AU1 antibodies, and immune complexes were incubated with increasing concentrations of FTS in a reaction mixture containing 2 mM [γ^32P] ATP (250 μCi/ml), 20 mM MnCl2, and 0.1 mg/ml purified recombinant histidine-tagged PHAS-1. After fifteen minutes the reaction was stopped by adding SDS sample buffer, and samples were subjected to SDS-PAGE. The amount of ^32P incorporated into PHAS-I was determined and expressed as a percentage of that incorporated in the absence of FTS. Mean values±the half the range of two experiments are presented.
293T cells were transfected with pcDNA3 alone (Vec.) or with a combination of pcDNA3AU1-mTOR, pcDNA33HA-Raptor, and pcDNA33HA-mLST8. Extracts of the cells were incubated with increasing concentrations of FTS before AU1-mTOR was immunoprecipated. Samples of the immune complexes were incubated with [γ-^32P]ATP and recombinant [His^6]PHAS-I, then subjected to SDS-PAGE and transferred to an immobilon membrane. After obtaining a phosphorimage of the membrane to detect ^32P-PHAS-I, the membrane was immunoblotted with PThr^36/45 antibodies. Other samples of the immune complexes were subjected to SDS-PAGE and immunoblots were prepared with antibodies to the HA epitope or to mTOR (see FIG. 13A). Extracts of nontransfected 293T cells were incubated with increasing concentrations of FTS before mTOR was immunoprecipated with mTAb1. A control immunoprecipitation was conducted using nonimmune IgG (NI). Immune complexes were subjected to SDS-PAGE and immunoblots were prepared with antibodies to mLST8, mTOR, and raptor.
Samples of extracts from 293T cells overexpressing AU1-mTOR, HA-raptor, and HA-mLST8 were incubated for 1 h with increasing concentrations of FTS (●, ▴, ▪) or GTS (∘, Δ, □) before immunoprecipitations were conducted with anti-AU1 antibodies. mTOR kinase activity (●, ∘) was determined by measuring ^32P incorporation into [His^6]PHAS-I in immune complex kinases assays performed with [γ-^32P]ATP (see FIG. 14A). The relative amounts of HA-raptor (▴, Δ) and HA-mLST8 (▪, □) that coimmunoprecipitated with AU1-mTOR were determined after immunoblotting with anti-HA antibodies (see FIG. 14B). The results (mean values+S.E. from 5 experiments) are expressed as percentages of the mTOR activity (FIG. 14A) or coimmunoprecipitating proteins (FIG. 14B) from samples incubated without FTS or GTS, and have been corrected for the amounts of AU1-mTOR immunoprecipitated.
293T cells were transfected with pcDNA3 alone (Vec.) or with a combination of pcDNA3AU1-mTOR, pcDNA33HARaptor, and pcDNA33HA-mLST8. AU1-mTOR was immunoprecipitated and samples of the washed immune complexes were at incubated […] for 30 min with no inhibitors or with the following: caffeine (1 mM), FTS (50 μM), LY294002 (10 μM), rapamycin (1 μM) plus FKBP12 (10 μM), and 1 μM wortmannin. To prevent destruction of wortmannin, incubations were conducted in the absence of thiol reducing agents. Samples of the immune complexes were incubated for 10 min with 10 mM MnCl2, 1 mM [γ-^32P]ATP, and 50 μg/ml [His^6]PHAS-I to assess mTOR activity. Other samples were rinsed twice, subjected to SDS-PAGE, and immunoblotted with anti-HA and anti-AU1 antibodies to determine the amounts of HA-raptor and HA-mLST8 associated with AU1-mTOR. The relative amounts of ^32P incorporated into PHAS-I were determined by phosphorimaging (see FIG. 15B).

CC(C)=CCC/C(C)=C/CC/C(C)=C/CSc1ccccc1C(=O)O [FTS, farnesylthiosalicylic acid]
concentration at which the effect on mTOR kinase activity could be seen: 25 µM
concentration of maximal effect on mTOR kinase activity: 100 µM
mTOR activity (FTS 50 μM, comparison with other mTOR inhibitors): decreased
PHAS-I kinase activity of AU1-mTOR: progressively decreased
concentrations needed to inhibit mTOR activity in vitro relative to intact cells (extracts vs intact cells): Approximately four times lower
ability of mTOR to phosphorylate a substrate specific to mTOR (recombinant mTOR immunoprecipitated from transfected cells): completely blocked

CC(C)=CCC/C(C)=C/CSc1ccccc1C(=O)O [GTS, S-geranylthiosalicylic acid, reference compound]
PHAS-I kinase activity of AU1-mTOR: progressive decreases
concentrations for effects on AU1-mTOR activity and AU1-mTOR/HA-raptor association relative to FTS (extracts of transfected cells): approximately ten times higher

Reference: US20070037887A1, “Blockade of mtor to prevent a hormonal adaptive response” (University of Virginia Patent Foundation, priority 2003, published 2007)
